SMILES strings stand for the structures. Bounds are passed on as bounds.

One experiment deals with MKN1 cells. In words: Inhibition of KRas-mediated phosphorylation of ERK (Cisbio HTRF pERK), MKN1 cells. It is filed as cell-based. Particulars: Homo sapiens. The method, boiled down:
(§1)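 On the first day, plate 6,000 cells into each well in RPMI medium with 10% fetal bovine serum.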

The next experiment deals with PSN1 cells. Put plainly: Inhibition of KRas-mediated phosphorylation of ERK (Cisbio HTRF pERK), PSN1 cells. The class given is cell-based. The settings on record: Homo sapiens, PSN1, 3 h. The method, boiled down: as §1
A general note: In TR-FRET formats the signal depends on donor and acceptor labels being close together.

Another experiment deals with ASPC1 cells. In words: Inhibition of KRas-mediated phosphorylation of ERK (Cisbio HTRF pERK), ASPC1 cells. Particulars: Homo sapiens, ASPC1, 3 h, AsPC-1 cells, 3 hr compound incubation. It is filed as cell-based.
The next experiment deals with H727 cells. Put plainly: Inhibition of KRas-mediated phosphorylation of ERK (Cisbio HTRF pERK), H727 cells. It is filed as cell-based. Particulars: Homo sapiens, NCI-H727, 3 h, 3 hr compound incubation.
The next experiment relates to A549 cells. In words: Inhibition of KRas-mediated phosphorylation of ERK (Cisbio HTRF pERK), A549 cells. It is filed as cell-based. Particulars: Homo sapiens, A549, 3 h, 3 hr compound incubation.
The next experiment relates to H460 cells. Put plainly: Inhibition of KRas-mediated phosphorylation of ERK (Cisbio HTRF pERK), H460 cells. The class given is cell-based. Particulars: Homo sapiens, NCI-H460, 3 h, 3 hr compound incubation.
The test system of the next experiment is HCT116 cells. In words: Inhibition of KRas-mediated phosphorylation of ERK (Cisbio HTRF pERK), HCT116 cells. It is filed as cell-based. Particulars: Homo sapiens, HCT-116, 3 h, 3 hr compound incubation.
Another experiment relates to H358 cells. In words: Inhibition of KRas-mediated phosphorylation of ERK (Cisbio HTRF pERK), H358 cells. It is filed as cell-based. Particulars: Homo sapiens, NCI-H358, 3 h, 3 hr compound incubation.
The next experiment addresses KRas G12D (Homo sapiens, UniProt P01116, G12D). In words: biochemical. The settings on record: Binding to KRas (IC50 nM) G12D, TR-FRET displacement, KRas G12D.
For another experiment, the target named is KRas G12R (Homo sapiens, UniProt P01116, G12R). Put plainly: biochemical. The settings on record: Binding to KRas (IC50 nM) G12R, TR-FRET displacement, KRas G12R.
In another experiment the target is KRas G12V (Homo sapiens, UniProt P01116, G12V). Put plainly: biochemical. The settings on record: Binding to KRas (IC50 nM) G12V, TR-FRET displacement, KRas G12V.
Where [1] appears, read: MKN-1, 3 hour compound incubation, Cisbio pERK HTRF.
[2] abbreviates: 3 hour compound incubation, Cisbio pERK HTRF.

Sequence of KRas G12R (P01116 1-169 isoform P01116-2 G12R): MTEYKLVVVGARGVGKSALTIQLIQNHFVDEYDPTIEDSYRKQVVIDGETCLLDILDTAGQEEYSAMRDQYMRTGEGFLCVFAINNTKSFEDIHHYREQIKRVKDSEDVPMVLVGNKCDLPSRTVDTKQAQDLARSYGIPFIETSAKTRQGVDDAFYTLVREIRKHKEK
Sequence of KRas G12V (P01116 1-169 isoform P01116-2 G12V): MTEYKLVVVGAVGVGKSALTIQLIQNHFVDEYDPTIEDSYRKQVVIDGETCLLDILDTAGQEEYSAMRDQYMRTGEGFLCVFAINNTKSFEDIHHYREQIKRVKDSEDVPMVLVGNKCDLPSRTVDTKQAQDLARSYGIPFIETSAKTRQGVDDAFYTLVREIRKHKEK
Sequence of KRas G12D (P01116 1-169 isoform P01116-2 G12D): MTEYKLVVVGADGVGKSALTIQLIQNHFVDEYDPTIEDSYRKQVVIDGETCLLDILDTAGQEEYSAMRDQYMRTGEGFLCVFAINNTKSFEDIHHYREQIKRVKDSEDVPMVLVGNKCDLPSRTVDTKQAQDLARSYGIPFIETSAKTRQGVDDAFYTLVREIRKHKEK

For `CCc1c(F)ccc2cc(O)cc(N3CCc4c(nc(OC[C@]56CCCN5[C@H](CNS(=O)(=O)N(C)C)CC6)nc4N4CCCn5nc(C(=O)N(C)C)cc5C4)C3)c12` [Example 593, 5-(2-(((3S,7aR)-3-(((N,N-dimethylsulfamoyl)amino)methyl)tetrahydro-1H-pyrrolizin-7a(5H)-yl)methoxy)-7-(8-ethyl-7-fluoro-3-hydroxynaphthalen-1-yl)-5,6,7,8-tetrahydropyrido[3,4-d]pyrimidin-4-yl)-N,N-dimethyl-5,6,7,8-tetrahydro-4H-pyrazolo[1,5-a][1,4]diazepine-2-carboxamide], the IC50 (usually the point on the concentration scale where inhibition reaches its midpoint) in the experiment with MKN1 cells (setting [1]) amounted to 49.1 nM; with PSN1 cells (setting [2]) it was 9360 nM; in the experiment on ASPC1 cells (Cisbio pERK HTRF), 19 nM; with H727 cells (Cisbio pERK HTRF), 50 nM; in the experiment with A549 cells (Cisbio pERK HTRF) it was 114 nM; with H460 cells (Cisbio pERK HTRF), 158 nM. For the same molecule, the IC50 in the experiment with HCT116 cells (Cisbio pERK HTRF) was 515 nM; in the experiment on H358 cells (Cisbio pERK HTRF), 16 nM; on KRas G12D, under 2 nM; at KRas G12R it was under 2 nM; at KRas G12V, under 2 nM.
Consider `CCc1c(F)ccc2cc(O)cc(N3CCc4c(nc(OCC5(CN(C)C)CC5)nc4N4CC(C)CC(CO)C4)C3)c12` (centres unmarked) [Example 596, 4-(2-((1-((dimethylamino)methyl)cyclopropyl)methoxy)-4-(3-(hydroxymethyl)-5-methylpiperidin-1-yl)-5,8-dihydropyrido[3,4-d]pyrimidin-7(6H)-yl)-5-ethyl-6-fluoronaphthalen-2-ol], for which the IC50 in the experiment with MKN1 cells (setting [1]) is over 10000 nM; in the experiment with PSN1 cells (setting [2]) it was over 10000 nM; with ASPC1 cells (Cisbio pERK HTRF) it was 1920 nM; with H727 cells (Cisbio pERK HTRF), 2490 nM; with A549 cells (Cisbio pERK HTRF) it was 2670 nM; in the experiment on H460 cells (Cisbio pERK HTRF), 1280 nM. Besides, the IC50 is 3340 nM with HCT116 cells (Cisbio pERK HTRF); 595 nM in the experiment with H358 cells (Cisbio pERK HTRF); 11 nM on KRas G12D; 9 nM on KRas G12R; 7 nM at KRas G12V.
Regarding `CCc1c(F)ccc2cc(O)cc(N3CCc4c(nc(OCC5(CN(C)C)CC5)nc4N4CCCC(c5cn(C)nn5)C4)C3)c12` (centres unmarked) [Example 598, 4-(2-((1-((dimethylamino)methyl)cyclopropyl)methoxy)-4-(3-(1-methyl-1H-1,2,3-triazol-4-yl)piperidin-1-yl)-5,8-dihydropyrido[3,4-d]pyrimidin-7(6H)-yl)-5-ethyl-6-fluoronaphthalen-2-ol], the IC50 in the experiment on MKN1 cells (setting [1]) was 1450 nM; in the experiment on PSN1 cells (setting [2]), over 10000 nM; in the experiment on ASPC1 cells (Cisbio pERK HTRF), 2380 nM; in the experiment on H727 cells (Cisbio pERK HTRF), 1740 nM; in the experiment on A549 cells (Cisbio pERK HTRF), 1540 nM; in the experiment with H460 cells (Cisbio pERK HTRF), 1260 nM. Further, the IC50 in the experiment on HCT116 cells (Cisbio pERK HTRF) was 4280 nM; in the experiment on H358 cells (Cisbio pERK HTRF), 757 nM; on KRas G12D it was 16 nM; at KRas G12R it was 8 nM; at KRas G12V it was 12 nM.
For `CCc1c(F)ccc2cc(O)cc(N3CCc4c(nc(OCC5(CN(C)C)CC5)nc4N4CCCC(n5ccc(C)n5)C4)C3)c12` (centres unmarked) [Example 600, 4-(2-((1-((dimethylamino)methyl)cyclopropyl)methoxy)-4-(3-(3-methyl-1H-pyrazol-1-yl)piperidin-1-yl)-5,8-dihydropyrido[3,4-d]pyrimidin-7(6H)-yl)-5-ethyl-6-fluoronaphthalen-2-ol], the IC50 in the experiment on MKN1 cells (setting [1]) was 1120 nM; in the experiment on PSN1 cells (setting [2]), 605 nM; in the experiment on ASPC1 cells (Cisbio pERK HTRF), 4980 nM; with H727 cells (Cisbio pERK HTRF), 6290 nM; in the experiment on A549 cells (Cisbio pERK HTRF) it was over 10000 nM; with H460 cells (Cisbio pERK HTRF) it was 1210 nM. Besides, the IC50 in the experiment with HCT116 cells (Cisbio pERK HTRF) turned out to be 3290 nM; in the experiment with H358 cells (Cisbio pERK HTRF), 808 nM; at KRas G12D, 33 nM; on KRas G12R, 7 nM; at KRas G12V it was 25 nM.
For the molecule `CCc1c(F)ccc2cc(O)cc(N3CCc4c(nc(OC[C@@]56CCCN5C[C@H](F)C6)nc4N4CCCn5nc(C(=O)N6CC7CNC(CO)C7C6)cc5C4)C3)c12` (stereo partly drawn) [Example 607, (5-(7-(8-ethyl-7-fluoro-3-hydroxynaphthalen-1-yl)-2-(((2R,7aS)-2-fluorotetrahydro-1H-pyrrolizin-7a(5H)-yl)methoxy)-5,6,7,8-tetrahydropyrido[3,4-d]pyrimidin-4-yl)-5,6,7,8-tetrahydro-4H-pyrazolo[1,5-a][1,4]diazepin-2-yl)(4-(hydroxymethyl)hexahydropyrrolo[3,4-c]pyrrol-2(1H)-yl)methanone], the IC50 in the experiment on MKN1 cells (setting [1]) is 953 nM; with PSN1 cells (setting [2]), over 10000 nM; in the experiment on ASPC1 cells (Cisbio pERK HTRF) it was 161 nM; in the experiment on H727 cells (Cisbio pERK HTRF), 1220 nM; in the experiment with A549 cells (Cisbio pERK HTRF) it was 722 nM; in the experiment on H460 cells (Cisbio pERK HTRF), 3410 nM. The IC50 is 3580 nM in the experiment with HCT116 cells (Cisbio pERK HTRF); 229 nM in the experiment on H358 cells (Cisbio pERK HTRF); under 2 nM on KRas G12D; under 2 nM on KRas G12R; under 2 nM at KRas G12V.
`CCc1c(F)ccc2cc(O)cc(N3CCc4c(nc(OC[C@@]56CCCN5C[C@H](F)C6)nc4N4CCCn5nc(C(=O)N6CCNC7CC6C7)cc5C4)C3)c12` [Example 608, (2,5-diazabicyclo[4.1.1]octan-2-yl)(5-(7-(8-ethyl-7-fluoro-3-hydroxynaphthalen-1-yl)-2-(((2R,7aS)-2-fluorotetrahydro-1H-pyrrolizin-7a(5H)-yl)methoxy)-5,6,7,8-tetrahydropyrido[3,4-d]pyrimidin-4-yl)-5,6,7,8-tetrahydro-4H-pyrazolo[1,5-a][1,4]diazepin-2-yl)methanone]: the IC50 in the experiment with MKN1 cells (setting [1]) is 49.7 nM; with PSN1 cells (setting [2]), over 10000 nM; in the experiment on ASPC1 cells (Cisbio pERK HTRF) it was 46 nM; in the experiment on H727 cells (Cisbio pERK HTRF), 274 nM; with A549 cells (Cisbio pERK HTRF), 215 nM; with H460 cells (Cisbio pERK HTRF), 353 nM. The IC50 in the experiment with HCT116 cells (Cisbio pERK HTRF) is 544 nM; in the experiment with H358 cells (Cisbio pERK HTRF), 42 nM; on KRas G12D, under 2 nM; on KRas G12R, under 2 nM; at KRas G12V it was under 2 nM.
For the molecule `CCc1c(F)ccc2cc(O)cc(N3CCc4c(nc(OC[C@@]56CCCN5C[C@H](F)C6)nc4N4CCCn5nc(C(=O)N6CC[C@H]7C[C@H]76)cc5C4)C3)c12` [Example 614, ((1R,5S)-2-azabicyclo[3.1.0]hexan-2-yl)(5-(7-(8-ethyl-7-fluoro-3-hydroxynaphthalen-1-yl)-2-(((2R,7aS)-2-fluorotetrahydro-1H-pyrrolizin-7a(5H)-yl)methoxy)-5,6,7,8-tetrahydropyrido[3,4-d]pyrimidin-4-yl)-5,6,7,8-tetrahydro-4H-pyrazolo[1,5-a][1,4]diazepin-2-yl)methanone], the 50% inhibitory concentration (IC50) is 5.5 nM with MKN1 cells (MKN-1, 3 hr compound incubation); 4070 nM in the experiment with PSN1 cells (3 hr compound incubation); 4 nM with ASPC1 cells; 10 nM with H727 cells; 3 nM in the experiment with A549 cells; 40 nM in the experiment with H460 cells. In addition, the IC50 is 123 nM in the experiment with HCT116 cells; 4 nM with H358 cells; under 2 nM on KRas G12D; under 2 nM on KRas G12R; under 2 nM at KRas G12V.

These data come from patent publication US20250368649A1, “TETRAHYDROPYRIDOPYRIMIDINE PAN-KRAS INHIBITORS” (Mirati Therapeutics, Inc., priority 2022, published 2025).
